# According to patent US20060084694A1, “Ligand-dependant activation of Nur77 and uses thereof” (priority 2004, published 2006):
# Entries after “also recorded” stand apart in the source; their conditions may differ.
# What was measured:
# [1] = system: TRAIL mRNA; experiment: TRAIL mRNA in Panc-28 cells (RT-PCR); type: cell-based; conditions: Panc-28 cells (FIG. 6B)
# Protocol: cDNA was prepared from the Panc-28 cell line using a combination of oligodeoxythymidylic acid (Oligo d(T)16), and dNTP mix (Applied Biosystems) and Superscript II (Invitrogen). Each PCR was carried out in triplicate in a 20-μl volume using Sybr Green Mastermix (Applied Biosystems) for 15 min at 95° C. for initial denaturing, followed by 40 cycles of 95° C. for 30 s and 60° C. for 1 min in the ABI Prism 7700 Sequence Detection System. The ABI Dissociation Curves software was used following a brief thermal protocol (95° C. 15 s and 60° C. 20 s, followed by a slow ramp to 95° C.) to control for multiple species in each PCR amplification. Values for each gene were normalized to expression levels of TBP. The sequences of the primers used for RT-PCR were as follows: TRAIL forward, 5′-CGTGTACTTTACCAACGAGCTGA-3′, reverse, 5′-ACGGAGTTGCCACTTGACTTG-3′; and TBP forward, 5′-TGCACAGGAGCCAAGAGTGAA-3′, reverse, 5′-CACATCACAGCTCCCCACCA-3′.
# [2] = biological target: T1, GAL4-Nur77 (full length) chimera (Homo sapiens, UniProt P22736); experiment: GAL4-Nur77 (full length)/pGAL4 luciferase transactivation in Panc-28 cells; type: cell-based; conditions: for luciferase activity, GAL4-Nur77 (full length)/pGAL4: Panc-28 cells, 10 or 20 μM (FIG. 1B); for Nur77 activation, structure dependence (isomers and ring-substituted analogs): FIG. 1D, analogs data not shown
# T1 construct: Panc-28 cells transfected with a GAL4-Nur77 (full length) chimera; expressed in transfected cells; host or cells: Panc-28
# From the text: Structure-dependent activation of Nur77 by a series of eleven C-substituted DIMs was investigated in Panc-28 cells transfected with a GAL4-Nur77 (full length) chimera and a reporter construct containing five GAL4 response elements linked to a luciferase reporter gene (pGAL4).
# (§1) Transfection assays were essentially carried out as previously described using Lipofectamine Plus reagent (Invitrogen, Carlsbad, Calif.) and luciferase activities were normalized to β-galactosidase activity. […] Results are expressed as means±SE for at least three replicate determinations for each treatment group.
# [3] = biological target: T2, GAL4-Nur77(E/F) (Homo sapiens, UniProt P22736); experiment: GAL4-Nur77(E/F)/pGAL4 transactivation in Panc-28 cells; type: cell-based; conditions: 5-15 μM (FIG. 2A)
# T2 construct: a chimeric GAL4-Nur77(E/F) construct containing only the E/F domain of Nur77; expressed in transfected cells; host or cells: Panc-28
# From the text: as §1
# (§2) (FIG. 2A). […] The structural specificity of Nur77 antagonists was further investigated using meta-hydroxy (DIM-C-mPhOH) and ortho-hydroxy (DIM-C-oPhOH) analogs. […] Thus, activation of Nur77 by C-DIMs was E/F domain-dependent and Nur77 activation was inhibited by DIM-C-pPhOH; moreover, both activation and inhibition of Nur77-mediated transactivation was dependent on the structure of the C-DIM compounds.
# [4] = biological target: T3, PPARγ (Homo sapiens, UniProt P37231); conditions: Qin, et al., 2004, Chintharlapalli; cited from earlier work
# T3 sequence (P37231 1-505): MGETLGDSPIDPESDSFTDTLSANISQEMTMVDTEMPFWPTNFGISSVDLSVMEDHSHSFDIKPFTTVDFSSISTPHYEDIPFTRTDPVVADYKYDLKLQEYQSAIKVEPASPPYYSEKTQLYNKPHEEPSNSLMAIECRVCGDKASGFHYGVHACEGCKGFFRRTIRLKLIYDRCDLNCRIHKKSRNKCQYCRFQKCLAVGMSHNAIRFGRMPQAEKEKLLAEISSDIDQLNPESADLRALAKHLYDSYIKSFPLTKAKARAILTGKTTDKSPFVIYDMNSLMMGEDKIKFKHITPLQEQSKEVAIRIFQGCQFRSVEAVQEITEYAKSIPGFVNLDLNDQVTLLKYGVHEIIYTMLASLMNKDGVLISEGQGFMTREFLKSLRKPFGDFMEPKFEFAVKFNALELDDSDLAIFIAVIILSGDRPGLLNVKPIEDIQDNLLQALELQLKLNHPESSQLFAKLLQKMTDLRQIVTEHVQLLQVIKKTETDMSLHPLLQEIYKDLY
# [5] = biological target: T4, Nur77 (Homo sapiens, UniProt P22736); experiment: Nur77 subcellular localization and level (immunostaining, Western blot of cytosolic and nuclear extracts); conditions: for Nur77 translocation, Western blot of cytosolic and nuclear extracts: Panc-28, 10 or 20 μM, 12 hr (FIG. 4B); for Nur77 localization by immunostaining: Panc-28 cells, 10 μM, 6 hr (FIG. 4A)
# Protocol: The different cancer cell lines were cultured under standardized conditions. Panc-28 cells were grown in DMEM:Ham's F-12 media containing 2.5% charcoal stripped fetal bovine serum, and cells were treated with DMSO and different concentrations of test compounds as indicated. […] For all other assays, cytosolic, nuclear fractions, or whole cell lysates were obtained at various time points, analyzed by Western blot analysis, and bands were quantitated as previously described (Qin, et al., 2004; Abdelrahim, et al., 2002). Immunocytochemical analysis was determined using Nur77 antibodies as previously reported (Abdelrahim, et al., 2002).
# Sp1 is a nuclear protein and was used as a control to ensure efficient separation of the two extracts and Sp1 was identified only in the nuclear fraction.
# [6] = system: PARP cleavage; experiment: PARP cleavage in Panc-28 cells (Western blot); type: cell-based; conditions: for effect of leptomycin B on PARP cleavage induced by Nur77 agonists: Panc-28, LMB 1 ng/ml cotreatment (FIG. 5E)
# Protocol: The different cancer cell lines were cultured under standardized conditions. Panc-28 cells were grown in DMEM:Ham's F-12 media containing 2.5% charcoal stripped fetal bovine serum, and cells were treated with DMSO and different concentrations of test compounds as indicated. For longer term cell survival studies, the media was changed every second day, and values were presented for a 4 day experiment. For all other assays, cytosolic, nuclear fractions, or whole cell lysates were obtained at various time points, analyzed by Western blot analysis, and bands were quantitated as previously described (Qin, et al., 2004; Abdelrahim, et al., 2002). Immunocytochemical analysis was determined using Nur77 antibodies as previously reported (Abdelrahim, et al., 2002).
# [7] = biological target: T5, GAL4-Nur77 (Homo sapiens, UniProt P22736); experiment: Nur77 antagonist assay: cotreatment with Nur77 agonists, GAL4-Nur77/pGAL4 in Panc-28 cells; type: cell-based; conditions: for Nur77 antagonist activity (inhibition of agonist-induced transactivation): Panc-28, cotreatment with Nur77 agonists, 10 or 20 μM (FIG. 2C-2E)
# T5 construct: expressed in transfected cells; host or cells: Panc-28
# From the text: as §1, §2
# [8] = system: Panc-28 cells; experiment: Annexin V-Alexa-488 / propidium iodide apoptosis assay in Panc-28 cells; type: cell-based; conditions: for annexin V-stained cells: Panc-28, 10 and 20 μM, 8 and 12 hr (FIG. 5C)
# Protocol: Detection of phosphatidylserine on the outside of the cell membrane, a unique and early marker for apoptosis, was performed using a commercial kit (Vybrant Apoptosis Assay Kit #2; Molecular Probes, Eugene, Oreg.). […] Binding of annexin V-Alexa-488 conjugate and propidium iodide (PI) was performed according to the manufacturer's instructions. After binding and washing, cells were observed under phase contrast and epifluorescent illumination using a 495-nm excitation filter and a 520-nm absorption filter for annexin V-Alexa 488 and a 546-nm excitation filter and a 590-nm absorption filter for PI. Healthy cells were unstained by either dye; cells in early stages of apoptosis were stained only by annexin V, while dead cells were stained by annexin V and PI. The assay was repeated on three separate Panc-28 cell preparations.
# [9] = biological target: VP-Nur77 (ligand binding domain) / GAL4-coactivator chimeras (Homo sapiens, UniProt P22736); conditions: Panc-28, VP-Nur77
# Protocol: Panc-28 cells were plated in 12-well plates at 1×10^5 cells/well in DME-F12 media supplemented with 2.5% charcoal-stripped FBS. After growth for 16 hr, various amounts of DNA, i.e. Gal4Luc (0.4 μg), β-gal (0.04 μg), VP-Nur77(E/F) (0.04 μg), pM SRC1 (0.04 μg), pMSRC2 (0.04 μg), pMSRC3 (0.04 μg), pMDRIP205 (0.04 μg) and pMCARM-1 (0.04 μg) were transfected by Lipofectamine (Invitrogen) according to the manufacturer's protocol. After 5 hr of transfection, the transfection mix was replaced with complete media containing either vehicle (DMSO) or the indicated ligand for 20-22 hr. Cells were then lysed with 100 ml of 1X reporter lysis buffer, and 30 μl of cell extract were used for luciferase and β-Gal assays. Lumicount was used to quantitate luciferase and β-Gal activities, and the luciferase activities were normalized to β-Gal activity.
# Ligand-induced Nur77-coactivator interactions were determined using a construct (pGAL4) containing 5 GAL4 response elements. Coactivators used in this study include SRC-1, SRC-2 (TIFII), SRC-3 (AIB1), PGC-1, TRAP220 and CARM-1. A GAL4-repressor (SMRT) chimera was also included in the assay.
# [10] = system: Panc-28 cell xenografts; experiment: Tumor growth in athymic nude mice bearing Panc-28 cell xenografts; type: in vivo, athymic nude mice (BALB/c)
# Protocol: Male athymic nude mice (BALB/c, ages 8-12 weeks) were purchased from Harlan (Indianapolis, Ind.). The mice were housed and maintained in laminar flow cabinets under specific pathogen-free conditions. Panc-28 cells were harvested from subconfluent cultures by trypsinization and washed. Panc-28 cells (2×10^6) were injected subcutaneously into each mouse on both flanks using a 30-gauge needle. The tumors were allowed to grow for 11 days until tumors were palpable. Mice were then randomized into two groups of seven mice per group and dosed by oral gavage with either corn oil or DIM-C-pPhOCH3 every second day. The volume of corn oil was 75 μl, and the dose of DIM-C-pPhOCH3 was 25 mg/kg/day. The mice were weighed, and tumor areas were also measured ever other day. Final body and tumor weights were determined at the end of the dosing regiment; and selected tissues were further examined by routine H & E staining and immunohistochemical analysis for apoptosis using the TUNEL assay.
# [11] = biological target: T4, Nur77; experiment: Nur response element (NurRE) luciferase transactivation in Panc-28 cells; type: cell-based; design: endogenous in cells; host or cells: Panc-28; conditions: 10 or 20 μM (FIG. 1C)
# [12] = system: TRAIL; experiment: TRAIL protein expression in Panc-28 cells (Western blot); type: cell-based
# From the text: In thymocytes, there is evidence that Nur77-induced apoptosis is linked to transcriptional activation (uang, et al., 1999), and microarray studies in thymocytes undergoing Nur77-dependent apoptosis identified several apoptosis-related genes including fasL and TRAIL (Rajpal, et al., 2003). […] (FIG. 6B). Since TRAIL activates the extrinsic apoptosis pathway and activation of caspase 8, the effect of a caspase 8 inhibitor (Z-IETD-FMK) and the pan-caspase inhibitor (Z-VAD-FMK) was also investigated on induction of PARP cleavage by Nur77 agonists (FIG. 6C).
# [13] = system: Panc-28 cells; experiment: Cell survival of Panc-28 cells; type: cell-based
# Protocol: The different cancer cell lines were cultured under standardized conditions. Panc-28 cells were grown in DMEM:Ham's F-12 media containing 2.5% charcoal stripped fetal bovine serum, and cells were treated with DMSO and different concentrations of test compounds as indicated. For longer term cell survival studies, the media was changed every second day, and values were presented for a 4 day experiment.
# [14] = Panc-28, cotreatment with DIM-C-pPhOH3 or DIM-C-Ph (FIG. 6E)
# T2 sequence (P22736 360-595 limits assumed): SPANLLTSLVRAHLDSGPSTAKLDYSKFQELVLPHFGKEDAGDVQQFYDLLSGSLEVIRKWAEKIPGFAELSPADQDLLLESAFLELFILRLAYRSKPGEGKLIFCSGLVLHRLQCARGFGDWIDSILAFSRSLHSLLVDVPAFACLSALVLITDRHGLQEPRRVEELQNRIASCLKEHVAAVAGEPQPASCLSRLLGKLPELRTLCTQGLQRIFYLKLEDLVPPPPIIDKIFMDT
# VP-Nur77 (ligand binding domain) / GAL4-coactivator chimeras, sequence (P22736 360-595 limits assumed, change not shown): as the sequence (P22736 360-595 limits assumed) above
# T5 sequence (P22736 whole entry, the tested form may be a part): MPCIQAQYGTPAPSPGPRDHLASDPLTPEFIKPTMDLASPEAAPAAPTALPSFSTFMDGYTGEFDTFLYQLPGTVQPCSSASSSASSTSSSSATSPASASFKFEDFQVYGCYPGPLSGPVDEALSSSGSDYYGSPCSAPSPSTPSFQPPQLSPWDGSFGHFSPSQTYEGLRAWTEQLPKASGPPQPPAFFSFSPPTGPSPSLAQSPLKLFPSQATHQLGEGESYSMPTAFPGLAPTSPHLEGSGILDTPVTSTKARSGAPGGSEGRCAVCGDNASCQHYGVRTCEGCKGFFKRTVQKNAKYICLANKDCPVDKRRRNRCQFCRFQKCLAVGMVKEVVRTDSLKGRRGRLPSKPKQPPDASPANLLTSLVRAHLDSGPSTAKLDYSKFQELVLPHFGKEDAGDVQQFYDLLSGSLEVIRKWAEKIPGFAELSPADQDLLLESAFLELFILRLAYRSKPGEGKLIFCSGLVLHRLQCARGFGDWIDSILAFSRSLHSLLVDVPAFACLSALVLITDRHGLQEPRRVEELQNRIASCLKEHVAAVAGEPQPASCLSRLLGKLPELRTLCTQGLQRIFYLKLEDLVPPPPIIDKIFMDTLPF
# T1 sequence (P22736 whole entry, change not shown, the tested form may be a part): as the sequence (P22736 whole entry, the tested form may be a part) above
# T4 sequence (P22736 whole entry): as the sequence (P22736 whole entry, the tested form may be a part) above
compound,measurement,setting,value
c1ccc(C(c2c[nH]c3ccccc23)c2c[nH]c3ccccc23)cc1 [DIM-C-Ph],TRAIL mRNA levels,[1],induced TRAIL mRNA levels
same,"luciferase activity, GAL4-Nur77 (full length)/pGAL4",[2],activated luciferase activity
same,"luciferase activity, GAL4-Nur77(E/F)/pGAL4",[3],induced luciferase activity
same,PPARγ activation,[4],PPARγ-inactive
same,"Nur77 translocation, Western blot of cytosolic and nuclear extracts",[5],translocation from the nucleus is not observed
same,Nur77 localization by immunostaining,[5],Nur77 remained in the nucleus
"CCC(=C/[C@H](C)C/C=C/C(C)=C/[C@@H](C)C(=O)[C@@H](C)[C@H](O)[C@@H](C)C/C(C)=C/C(=O)O)/C=C/[C@@H]1OC(=O)C=C[C@@H]1C [leptomycin B, Leptomycin B]","PARP cleavage, LMB alone","[6]; Panc-28, 1 ng/ml (FIG. 5E)",slightly induced PARP cleavage
same,effect of leptomycin B on PARP cleavage induced by Nur77 agonists,[6],not affected
same,effect of leptomycin B on PARP cleavage induced by Nur77 agonists,[6]; listed as LMB,enhanced PARP cleavage
Oc1cccc(C(c2c[nH]c3ccccc23)c2c[nH]c3ccccc23)c1 [DIM-C-mPhOH],Nur77 antagonist activity (inhibition of agonist-induced transactivation),[7],did not inhibit
COc1cccc(C(c2c[nH]c3ccccc23)c2c[nH]c3ccccc23)c1 [DIM-C-mPhOCH3],"Nur77 activation, structure dependence (isomers and ring-substituted analogs)",[2],Only the para-substituted compound was active
COc1ccccc1C(c1c[nH]c2ccccc12)c1c[nH]c2ccccc12 [DIM-C-oPhOCH3],"Nur77 activation, structure dependence (isomers and ring-substituted analogs)",[2],Only the para-substituted compound was active
Oc1ccccc1C(c1c[nH]c2ccccc12)c1c[nH]c2ccccc12 [DIM-C-oPhOH],Nur77 antagonist activity (inhibition of agonist-induced transactivation),[7],did not exhibit Nur77 antagonist activity
same,toxicity in cotreated cells,[7]; high doses (20 μM) of both Nur77 agonists and DIM-C-oPhOH,toxic
"CC[C@@]1(O)C(=O)OCc2c1cc1n(c2=O)Cc2cc3ccccc3nc2-1 [camptothecin, reference compound]",annexin V-stained cells,[8],comparable
COc1ccc(C(c2c[nH]c3ccccc23)c2c[nH]c3ccccc23)cc1 [DIM-C-pPhOCH3],TRAIL mRNA levels,[1],induced TRAIL mRNA levels
same,"Nur77 activation, structure dependence (isomers and ring-substituted analogs)",[2],active
same,"luciferase activity, GAL4-Nur77 (full length)/pGAL4",[2],activated luciferase activity
same,transactivation with GAL4-CARM-1,[9],slightly activated
same,transactivation with GAL4-SRC-3,[9],induced transactivation
same,animal weight gain and organ weights,[10]; 25 mg/kg/day vs corn oil,comparable
same,tumor weights,"[10]; 25 mg/kg/day, oral gavage (FIG. 7B)",parallel decrease in tumor weights
same,tumor growth (area),"[10]; 25 mg/kg/day, oral gavage every second day (FIG. 7A)",significantly inhibited tumor growth
same,brain regions by H & E staining,[10]; treated vs corn oil,did not indicate any differences
same,"luciferase activity, GAL4-Nur77(E/F)/pGAL4",[3],induced luciferase activity
same,PPARγ activation,[4],PPARγ-inactive
same,"Nur77 translocation, Western blot of cytosolic and nuclear extracts",[5],translocation from the nucleus is not observed
same,Nur77 localization by immunostaining,[5],Nur77 remained in the nucleus
same,annexin V-stained cells,[8],time- and dose-dependent increase
same,PI staining after 6 hr,"[8]; Panc-28, 6 hr",minimal PI staining
same,annexin V-stained cells after 6 hr,"[8]; Panc-28, 6 hr",significantly increased
same,PI staining after 12 hr,"[8]; Panc-28, 12 hr",PI staining was increased
Oc1ccc(C(c2c[nH]c3ccccc23)c2c[nH]c3ccccc23)cc1 [DIM-C-pPhOH],"luciferase activity, GAL4-Nur77 (full length)/pGAL4",[2],inactive; also recorded: did not induce activity
same,activation of NurRE construct,[11],inactive
same,inhibition of TRAIL protein expression induced by Nur77 agonists,[12]; [14],inhibited induction
same,TRAIL protein expression,[12]; Panc-28 cells (FIG. 6A),did not induce TRAIL
same,inhibition of PARP cleavage induced by Nur77 agonists,[6]; [14],inhibited induction
same,cleavage of PARP,[6]; Panc-28 cells (FIG. 5B),did not induce this response
same,"luciferase activity, GAL4-Nur77(E/F)/pGAL4",[3],no response was observed
same,effect on cell survival,[13]; Panc-28 (FIG. 5A),did not affect cell survival
same,cell proliferation at longer time points,"[13]; Panc-28, 4 and 6 days",slightly inhibited cell proliferation
same,induction of cell death,"[13]; Panc-28, concentrations as high as 20 μM",induction of cell death was not observed
same,Nur77 antagonist activity (inhibition of agonist-induced transactivation),[7],antagonizes activation of Nur77 by all three C-DIM compounds
FC(F)(F)c1ccc(C(c2c[nH]c3ccccc23)c2c[nH]c3ccccc23)cc1 [DIM-C-pPhCF3],"luciferase activity, GAL4-Nur77 (full length)/pGAL4",[2],activated luciferase activity
same,transactivation with GAL4-CARM-1,[9],slightly activated
same,"luciferase activity, GAL4-Nur77(E/F)/pGAL4",[3],induced luciferase activity
same,PPARγ activation,[4],also activates PPARγ
same,"Nur77 translocation, Western blot of cytosolic and nuclear extracts",[5],translocation from the nucleus is not observed
same,Nur77 localization by immunostaining,[5],Nur77 remained in the nucleus
